Measured values from patent US10227357B2, “Compounds and methods for kinase modulation, and indications therefor” (Plexxikon Inc., priority 2012, dated 2019).

Columns and labels:
c-kit kinase = target: T1, c-kit kinase (Homo sapiens, UniProt P10721); assay: c-Kit biochemical assay, AlphaScreen, 10 μM ATP; details: c-kit biochemical inhibitory activity; read-out: Biochemical activity (IC50 μM) Kit
T1 construct: The c-kit (or kinase domain thereof) is an active kinase in AlphaScreen; poly-Histidine tag (in-house protein only) (cleaved yes); host or cells: E. coli BL21(DE3)RIL, co-expressed with PTP1B
Summary of the method: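 His-tagged c-Kit expressed in E. coli with co-expressed PTP1B (dephosphorylated), tag removed; 0.1 ng per reaction with biotinylated-peptide substrate in 50 mM HEPES pH 7.2, 5 mM MgCl2, 5 mM MnCl2, 5% DMSO, 10 μM ATP, 1 h at room temperature. Phosphorylation detected by AlphaScreen (streptavidin donor, PY20 acceptor beads); IC50 from 8-point 1:3 dilution series.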

c-kit mutant D816V = target: T2, c-kit mutant D816V (Homo sapiens, UniProt P10721, D816V/DEL694-753); assay: c-Kit mutant D816V biochemical assay, AlphaScreen; details: c-kit D816V biochemical inhibitory activity; read-out: Biochemical activity (IC50 μM) Kit D816V
T2 construct: residues 551-934, kinase insertion domain residues 694-753 deleted; 6x-histidine (N); made in house; host or cells: E. coli Arctic Express (DE3) RIL (Stratagene)
Summary of the method: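 Eight-point, threefold compound series incubated 30 min at room temperature with E. coli-produced D816V kinase, 10 μM ATP, Mg2+/Mn2+ HEPES buffer pH 7.2 and 5% DMSO. After EDTA stop, streptavidin and anti-phosphotyrosine (PY20) AlphaScreen beads gave the read-out, and IC50 was fitted from the concentration–signal curve.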

T2 sequence (P10721 with tags, fused parts or gaps DEL694-753/D816V): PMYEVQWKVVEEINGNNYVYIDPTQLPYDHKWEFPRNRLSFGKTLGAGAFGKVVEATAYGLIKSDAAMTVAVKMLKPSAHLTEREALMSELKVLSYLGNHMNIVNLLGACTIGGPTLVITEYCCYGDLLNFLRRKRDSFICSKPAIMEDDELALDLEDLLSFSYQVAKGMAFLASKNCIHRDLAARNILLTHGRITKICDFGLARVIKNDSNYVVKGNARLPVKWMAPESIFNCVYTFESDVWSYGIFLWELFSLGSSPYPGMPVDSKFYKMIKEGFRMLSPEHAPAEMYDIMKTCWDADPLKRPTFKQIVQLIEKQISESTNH
T1 sequence (P10721 26-976): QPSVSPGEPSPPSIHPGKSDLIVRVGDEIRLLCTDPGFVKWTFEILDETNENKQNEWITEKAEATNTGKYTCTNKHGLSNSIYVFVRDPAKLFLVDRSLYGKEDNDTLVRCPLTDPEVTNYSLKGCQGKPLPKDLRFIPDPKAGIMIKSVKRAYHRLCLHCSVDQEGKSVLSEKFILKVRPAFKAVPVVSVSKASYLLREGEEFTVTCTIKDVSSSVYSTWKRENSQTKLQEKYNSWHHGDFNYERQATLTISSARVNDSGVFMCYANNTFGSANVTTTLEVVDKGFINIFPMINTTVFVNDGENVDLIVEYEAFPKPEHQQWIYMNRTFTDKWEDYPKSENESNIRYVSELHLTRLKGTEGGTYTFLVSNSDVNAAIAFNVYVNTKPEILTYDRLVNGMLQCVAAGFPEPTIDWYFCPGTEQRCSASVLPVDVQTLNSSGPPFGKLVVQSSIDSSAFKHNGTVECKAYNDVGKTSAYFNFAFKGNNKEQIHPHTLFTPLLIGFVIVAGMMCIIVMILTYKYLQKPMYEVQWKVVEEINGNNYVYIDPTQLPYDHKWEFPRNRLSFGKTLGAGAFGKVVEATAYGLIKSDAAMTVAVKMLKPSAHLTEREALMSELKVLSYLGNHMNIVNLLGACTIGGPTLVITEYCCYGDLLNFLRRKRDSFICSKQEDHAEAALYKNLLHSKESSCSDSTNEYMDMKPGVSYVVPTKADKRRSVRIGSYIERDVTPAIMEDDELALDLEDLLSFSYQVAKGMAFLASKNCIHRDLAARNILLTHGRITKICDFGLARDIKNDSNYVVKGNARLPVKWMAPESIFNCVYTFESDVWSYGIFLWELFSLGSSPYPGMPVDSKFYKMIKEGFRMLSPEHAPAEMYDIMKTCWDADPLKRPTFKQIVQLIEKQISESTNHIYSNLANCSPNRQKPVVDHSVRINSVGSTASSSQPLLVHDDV

SMILES	IC50 (c-kit kinase) [µM]	IC50 (c-kit mutant D816V) [µM]
O=C(Nc1ccc(OC(F)(F)F)cc1)N1CCN(c2ncnc3[nH]c(C#CC4CC4)cc23)CC1 [P-0053, 4-[6-(2-cyclopropylethynyl)-7H-pyrrolo[2,3-d]pyrimidin-4-yl]-N-[4-(trifluoromethoxy)phenyl]piperazine-1-carboxamide]	1 to 10	10 to 200
C[C@@H]1CN(c2ncnc3[nH]c(-c4ccncc4)cc23)CCN1C(=O)NCc1cccc(Cl)c1 [P-0056, (2R)-N-[(3-chlorophenyl)methyl]-2-methyl-4-[6-(4-pyridyl)-7H-pyrrolo[2,3-d]pyrimidin-4-yl]piperazine-1-carboxamide]	1 to 10	0.0001 to 1
COc1ccc(NC(=O)N2CCN(c3ncnc4[nH]c(-c5ccncc5)cc34)C[C@H]2C)cn1 [P-0057, (2R)-N-(6-methoxy-3-pyridyl)-2-methyl-4-[6-(4-pyridyl)-7H-pyrrolo[2,3-d]pyrimidin-4-yl]piperazine-1-carboxamide]	1 to 10	0.0001 to 1
C[C@H](NC(=O)N1CCN(c2ncnc3[nH]c(-c4ccncc4)cc23)C[C@H]1C)c1ccc(F)cc1 [P-0058, (2R)-N-[(1S)-1-(4-fluorophenyl)ethyl]-2-methyl-4-[6-(4-pyridyl)-7H-pyrrolo[2,3-d]pyrimidin-4-yl]piperazine-1-carboxamide]	1 to 10	0.0001 to 1
C[C@H](NC(=O)N1CCN(c2ncnc3[nH]c(-c4ccncc4)cc23)C[C@H]1C)c1ccc(Cl)cc1 [P-0059, (2R)-N-[(1S)-1-(4-chlorophenyl)ethyl]-2-methyl-4-[6-(4-pyridyl)-7H-pyrrolo[2,3-d]pyrimidin-4-yl]piperazine-1-carboxamide]	0.0001 to 1	0.0001 to 1
COc1cccc([C@H](C)NC(=O)N2CCN(c3ncnc4[nH]c(-c5ccncc5)cc34)C[C@H]2C)c1 [P-0060, (2R)-N-[(1S)-1-(3-methoxyphenyl)ethyl]-2-methyl-4-[6-(4-pyridyl)-7H-pyrrolo[2,3-d]pyrimidin-4-yl]piperazine-1-carboxamide]	0.0001 to 1	0.0001 to 1
C[C@@H]1CN(c2ncnc3[nH]c(-c4ccncc4)cc23)CCN1C(=O)NCc1ccc(F)cc1 [P-0061, (2R)-N-[(4-fluorophenyl)methyl]-2-methyl-4-[6-(4-pyridyl)-7H-pyrrolo[2,3-d]pyrimidin-4-yl]piperazine-1-carboxamide]	1 to 10	0.0001 to 1
C[C@@H]1CN(c2ncnc3[nH]c(-c4ccncc4)cc23)CCN1C(=O)Nc1ccc(F)c(Cl)c1 [P-0062, (2R)-N-(3-chloro-4-fluoro-phenyl)-2-methyl-4-[6-(4-pyridyl)-7H-pyrrolo[2,3-d]pyrimidin-4-yl]piperazine-1-carboxamide]	1 to 10	0.0001 to 1
C[C@@H]1CN(c2ncnc3[nH]c(-c4ccncc4)cc23)CCN1C(=O)Nc1ccc(OC(F)(F)F)cc1 [P-0063, (2R)-2-methyl-4-[6-(4-pyridyl)-7H-pyrrolo[2,3-d]pyrimidin-4-yl]-N-[4-(trifluoromethoxy)phenyl]piperazine-1-carboxamide]	0.0001 to 1	0.0001 to 1
C[C@@H]1CN(c2ncnc3[nH]c(-c4ccncc4)cc23)CCN1C(=O)NCc1ccc(Cl)cc1 [P-0064, (2R)-N-[(4-chlorophenyl)methyl]-2-methyl-4-[6-(4-pyridyl)-7H-pyrrolo[2,3-d]pyrimidin-4-yl]piperazine-1-carboxamide]	0.0001 to 1	0.0001 to 1
C[C@@H]1CN(c2ncnc3[nH]c(-c4ccncc4)cc23)CCN1C(=O)Nc1ccc(Cl)cc1 [P-0065, (2R)-N-(4-chlorophenyl)-2-methyl-4-[6-(4-pyridyl)-7H-pyrrolo[2,3-d]pyrimidin-4-yl]piperazine-1-carboxamide]	0.0001 to 1	0.0001 to 1
C[C@@H]1CN(c2ncnc3[nH]c(-c4ccncc4)cc23)CCN1C(=O)Nc1ccc(N(C)C)cc1 [P-0066, (2R)-N-(4-dimethylaminophenyl)-2-methyl-4-[6-(4-pyridyl)-7H-pyrrolo[2,3-d]pyrimidin-4-yl]piperazine-1-carboxamide]	1 to 10	0.0001 to 1
O=C(Nc1ccc(OC(F)(F)F)cc1)N1CCN(c2ncnc3[nH]c(-c4ccccc4F)cc23)CC1 [P-0067, 4-[6-(2-fluorophenyl)-7H-pyrrolo[2,3-d]pyrimidin-4-yl]-N-[4-(trifluoromethoxy)phenyl]piperazine-1-carboxamide]	0.0001 to 1	1 to 10
CC1CN(c2ncnc3[nH]c(-c4ccncc4)cc23)CCN1C(=O)Nc1ccccc1 (centres unmarked) [P-0068, 2-methyl-N-phenyl-4-[6-(4-pyridyl)-7H-pyrrolo[2,3-d]pyrimidin-4-yl]piperazine-1-carboxamide]	1 to 10	1 to 10
CN(C)c1ccc(NC(=O)N2CCN(c3ncnc4[nH]c(-c5ccc(C#N)cc5)cc34)CC2)cc1 [P-0070, 4-[6-(4-cyanophenyl)-7H-pyrrolo[2,3-d]pyrimidin-4-yl]-N-(4-dimethylaminophenyl)piperazine-1-carboxamide]	1 to 10	1 to 10
C[C@H]1CN(c2ncnc3[nH]c(-c4ccncc4)cc23)CCN1 [P-0071, 4-[(3S)-3-methylpiperazin-1-yl]-6-(4-pyridyl)-7H-pyrrolo[2,3-d]pyrimidine]	10 to 200	1 to 10
C[C@H](NC(=O)N1CCN(c2ncnc3[nH]c(-c4ccc(F)cc4)cc23)CC1)c1cccc(OC(F)F)c1 [P-0072, N-[(1S)-1-[3-(difluoromethoxy)phenyl]ethyl]-4-[6-(4-fluorophenyl)-7H-pyrrolo[2,3-d]pyrimidin-4-yl]piperazine-1-carboxamide]	1 to 10	0.0001 to 1
C[C@@H]1CN(c2ncnc3[nH]c(-c4ccncc4)cc23)CCN1 [P-0074, 4-[(3R)-3-methylpiperazin-1-yl]-6-(4-pyridyl)-7H-pyrrolo[2,3-d]pyrimidine]	10 to 200	10 to 200
C[C@H](NC(=O)N1CCN(c2ncnc3[nH]c(-c4ccc(F)cc4)cc23)CC1)c1cccc(OC(F)(F)F)c1 [P-0075, 4-[6-(4-fluorophenyl)-7H-pyrrolo[2,3-d]pyrimidin-4-yl]-N-[(1S)-1-[3-(trifluoromethoxy)phenyl]lethyl]piperazine-1-carboxamide]	10 to 200	1 to 10
CS(=O)(=O)Nc1ccc(-c2cc3c(N4CCN(C(=O)Nc5ccc(OC(F)(F)F)cc5)CC4)ncnc3[nH]2)cc1 [P-0077, 4-[6-[4-(methanesulfonamido)phenyl]-7H-pyrrolo[2,3-d]pyrimidin-4-yl]-N-[4-(trifluoromethoxy)phenyl]piperazine-1-carboxamide]	0.0001 to 1	0.0001 to 1
NC(=O)c1cccc(-c2cc3c(N4CCN(C(=O)Nc5ccc(OC(F)(F)F)cc5)CC4)ncnc3[nH]2)c1 [P-0078, 4-[6-(3-carbamoylphenyl)-7H-pyrrolo[2,3-d]pyrimidin-4-yl]-N-[4-(trifluoromethoxy)phenyl]piperazine-1-carboxamide]	0.0001 to 1	10 to 200
Cc1ncc(-c2cc3c(N4CCN(C(=O)NCc5ccc(F)cc5)CC4)ncnc3[nH]2)s1 [P-0079, N-[(4-fluorophenyl)methyl]-4-[6-(2-methylthiazol-5-yl)-7H-pyrrolo[2,3-d]pyrimidin-4-yl]piperazine-1-carboxamide]	0.0001 to 1	0.0001 to 1
